Read-outs that look alike come from different tables or passages of the source.
Columns and labels:
[1] = tested on: HCV replicon (BB7 sequence) in Huh-7-Clone A cells; experiment: HCV replicon assay: ELISA of NS5A protein in replicon-containing cells (Inhibition of Viral RNA Replication); format: cell-based; settings: HCV replicon assay, ranges of 50% effective concentration (EC50), read-out: Replicon
Summary of the method: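 EC50 taken from an 8-point serially diluted dose curve, with NS5A level as read-out: fixed cells probed with primary monoclonal and HRP-conjugated secondary, TMB developed 30 min, OD 650 nm. Compound exposure 72 h in Huh-7-Clone A replicon cells (BB7 sequence).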

[2] = target: T1, HCV NS5B (Hepatitis C virus genotype 1b, UniProt Q9WMX2); experiment: Inhibition of viral RNA-dependent RNA polymerase (RdRp), in vitro biochemical assay; parameters: species or system HCV genotype 1b virus (BB7); settings: HCV NS5B polymerase, BB7 (genotype 1b); values given as range classes A-D; read-out: HCV pol-BB7 IC50
T1 construct: fusion protein, of which the carboxyl terminal 21 amino acids were removed to enhance its solubility; His tag (GSHHHHHH); made in house; host or cells: E. coli
Summary of the method: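 IC50 values are the concentrations that halve in vitro RNA synthesis by HCV NS5B polymerase. The enzyme was a C-terminally truncated (Δ21), His-tagged genotype 1b (BB7 consensus) protein purified from E. coli.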

SMILES: CNC(=O)c1c(-c2ccc(F)cc2)oc2cc(C3(C)NC(=O)NC3=O)c(OC)cc12 (stereo not drawn) [Example 389, 2-(4-Fluoro-phenyl)-5-methoxy-6-(4-methyl-2,5-dioxo-imidazolidin-4-yl)-benzofuran-3-carboxylic acid methylamide]
- EC50 ([1]; Hepatitis C virus): < 10000 nM
- IC50 [2]: ≤ 500 nM

SMILES: CNC(=O)c1c(-c2ccc(F)cc2)oc2cc(C(C)(C)NS(C)(=O)=O)c(OC)cc12 [Example 390, 2-(4-Fluoro-phenyl)-6-(1-methanesulfonylamino-1-methyl-ethyl)-5-methoxy-benzofuran-3-carboxylic acid methylamide]
- EC50 ([1]; Hepatitis C virus): < 10000 nM
- IC50 [2]: ≤ 500 nM

SMILES: CNC(=O)c1c(-c2ccc(F)cc2)oc2cc(N(Cc3cccc(CBr)n3)S(C)(=O)=O)c(OCc3cccc(CBr)n3)cc12 [Example 391, 5-(6-Bromomethyl-pyridin-2-ylmethoxy)-6-[(6-bromomethyl-pyridin-2-ylmethyl)-methanesulfonyl-amino] 2-(4-fluoro-phenyl)-benzofuran-3-carboxylic acid methylamide]
- EC50 ([1]; Hepatitis C virus): < 10000 nM
- IC50 [2]: ≤ 500 nM

SMILES: CCOC(=O)c1csc(COc2cc3c(C(=O)NC)c(-c4ccc(F)cc4)oc3cc2N(C)S(C)(=O)=O)n1 [Example 392, 2-[2-(4-Fluoro-phenyl)-6-(methanesulfonyl-methyl-amino)-3-methylcarbamoyl-benzofuran-5-yloxymethyl]-thiazole-4-carboxylic acid ethyl ester]
- EC50 ([1]; Hepatitis C virus): < 1000 nM
- IC50 [2]: ≤ 500 nM

SMILES: CNC(=O)c1c(-c2ccc(F)cc2)oc2cc(N(C)S(C)(=O)=O)c(OCc3nc(C(=O)O)cs3)cc12 [Example 393, 2-[2-(4-Fluoro-phenyl)-6-(methanesulfonyl-methyl-amino)-3-methylcarbamoyl-benzofuran-5-yloxymethyl]-thiazole-4-carboxylic acid]
- EC50 ([1]; Hepatitis C virus): > 30000 nM
- IC50 [2]: ≤ 500 nM

SMILES: CNC(=O)c1c(-c2ccc(F)cc2)oc2cc(N(C)C)c(OC)cc12 [Example 394, 6-Dimethylamino-2-(4-fluoro-phenyl)-5-methoxy-benzofuran-3-carboxylic acid methylamide]
- EC50 ([1]; Hepatitis C virus): < 1000 nM
- IC50 [2]: ≤ 500 nM

SMILES: CNC(=O)c1c(-c2ccc(F)cc2)oc2cc(N(C)S(C)(=O)=O)c(OCC#N)cc12 [Example 395, 5-Cyanomethoxy-2-(4-fluoro-phenyl)-6-(methanesulfonyl-methyl-amino)-benzofuran-3-carboxylic acid methylamide]
- EC50 ([1]; Hepatitis C virus): < 1000 nM
- IC50 [2]: ≤ 500 nM

SMILES: CNC(=O)c1c(-c2ccc(F)cc2)oc2cc(N(C)S(C)(=O)=O)c(OCc3cc(C)on3)cc12 [Example 396, 2-(4-Fluoro-phenyl)-6-(methanesulfonyl-methyl-amino)-5-(5-methyl-isoxazol-3-ylmethoxy)-benzofuran-3-carboxylic acid methylamide]
- EC50 ([1]; Hepatitis C virus): < 1000 nM
- IC50 [2]: ≤ 500 nM

SMILES: CNC(=O)c1c(-c2ccc(F)cc2)oc2cc(N(C)S(C)(=O)=O)c(OCc3nnsc3Cl)cc12 [Example 397, 5-(5-Chloro-[1,2,3]thiadiazol-4-ylmethoxy)-2-(4-fluoro-phenyl)-6-(methanesulfonyl-methyl-amino)-benzofuran-3-carboxylic acid methylamide]
- EC50 ([1]; Hepatitis C virus): < 1000 nM
- IC50 [2]: ≤ 500 nM

SMILES: CNC(=O)c1c(-c2ccc(F)cc2)oc2cc(N(C)S(C)(=O)=O)c(OCc3nccn3C)cc12 [Example 398, 2-(4-Fluoro-phenyl)-6-(methanesulfonyl-methyl-amino)-5-(1-methyl-1H-imidazol-2-ylmethoxy)-benzofuran-3-carboxylic acid methylamide]
- EC50 ([1]; Hepatitis C virus): < 1000 nM
- IC50 [2]: ≤ 500 nM

SMILES: CNC(=O)c1c(-c2ccc(F)cc2)oc2cc(-c3c(C)noc3C)c(OCc3cscn3)cc12 [Example 401, 6-(3,5-Dimethyl-isoxazol-4-yl)-2-(4-fluoro-phenyl)-5-(thiazol-4-ylmethoxy)-benzofuran-3-carboxylic acid methylamide]
- EC50 ([1]; Hepatitis C virus): < 1000 nM
- IC50 [2]: ≤ 500 nM

SMILES: CNC(=O)c1c(-c2ccc(F)cc2)oc2cc(N(C)S(C)(=O)=O)c(OCc3nnc(N)[nH]3)cc12 [Example 402, 5-(5-Amino-4H-[1,2,4]triazol-3-ylmethoxy)-2-(4-fluoro-phenyl)-6-(methanesulfonyl-methyl-amino)-benzofuran-3-carboxylic acid methylamide]
- EC50 ([1]; Hepatitis C virus): < 1000 nM
- IC50 [2]: ≤ 500 nM

SMILES: CNC(=O)c1c(-c2ccc(F)cc2)oc2cc(N(C)S(C)(=O)=O)c(OCc3nn(C)cc3Cl)cc12 [Example 403, 5-(4-Chloro-1-methyl-1H-pyrazol-3-ylmethoxy)-2-(4-fluoro-phenyl)-6-(methanesulfonyl-methyl-amino)-benzofuran-3-carboxylic acid methylamide]
- EC50 ([1]; Hepatitis C virus): < 1000 nM
- IC50 [2]: ≤ 500 nM

SMILES: CNC(=O)c1c(-c2ccc(F)cc2)oc2cc(N(C)S(C)(=O)=O)c(OCCn3cccn3)cc12 [Example 404, 2-(4-Fluoro-phenyl)-6-(methanesulfonyl-methyl-amino)-5-(2-pyrazol-1-yl-ethoxy)-benzofuran-3-carboxylic acid methylamide]
- EC50 ([1]; Hepatitis C virus): < 1000 nM
- IC50 [2]: ≤ 500 nM

SMILES: CNC(=O)c1c(-c2ccc(F)cc2)oc2cc(N(C)S(C)(=O)=O)c(OCc3ncc[nH]3)cc12 [Example 405, 2-(4-Fluoro-phenyl)-5-(1H-imidazol-2-ylmethoxy)-6-(methanesulfonyl-methyl-amino)-benzofuran-3-carboxylic acid methylamide]
- EC50 ([1]; Hepatitis C virus): < 1000 nM
- IC50 [2]: ≤ 500 nM

SMILES: CNC(=O)c1c(-c2ccc(F)cc2)oc2cc(C3NC(=O)NC3=O)c(OC)cc12 (stereo not drawn) [Example 406, 6-(2,5-Dioxo-imidazolidin-4-yl)-2-(4-fluoro-phenyl)-5-methoxy-benzofuran-3-carboxylic acid methylamide]
- EC50 ([1]; Hepatitis C virus): < 1000 nM
- IC50 [2]: 500 to 5000 nM

SMILES: CNC(=O)c1c(-c2ccc(F)cc2)oc2cc(-c3c(C)noc3C)c(OCc3cc(C)on3)cc12 [Example 409, 6-(3,5-Dimethyl-isoxazol-4-yl)-2-(4-fluoro-phenyl)-5-(5-methyl-isoxazol-3-ylmethoxy)-benzofuran-3-carboxylic acid methylamide]
- EC50 ([1]; Hepatitis C virus): < 1000 nM
- IC50 [2]: ≤ 500 nM

SMILES: CNC(=O)c1c(-c2ccc(F)cc2)oc2cc(-c3c(C)noc3C)c(OCc3nccs3)cc12 [Example 410, 6-(3,5-Dimethyl-isoxazol-4-yl)-2-(4-fluoro-phenyl)-5-(thiazol-2-ylmethoxy)-benzofuran-3-carboxylic acid methylamide]
- EC50 ([1]; Hepatitis C virus): < 1000 nM
- IC50 [2]: ≤ 500 nM

SMILES: CNC(=O)c1c(-c2ccc(F)cc2)oc2cc(N(C)S(C)(=O)=O)c(OCC(=O)Nc3nccs3)cc12 [Example 415, 2-(4-Fluoro-phenyl)-6-(methanesulfonyl-methyl-amino)-5-(thiazol-2-ylcarbamoylmethoxy)-benzofuran-3-carboxylic acid methylamide]
- EC50 ([1]; Hepatitis C virus): < 1000 nM
- IC50 [2]: ≤ 500 nM

SMILES: CNC(=O)c1c(-c2ccc(F)cc2)oc2cc(N(C)S(C)(=O)=O)c(OCC(=O)Nc3nncs3)cc12 [Example 416, 2-(4-Fluoro-phenyl)-6-(methanesulfonyl-methyl-amino)-5-([1,3,4]thiadiazol-2-ylcarbamoylmethoxy)-benzofuran-3-carboxylic acid methylamide]
- EC50 ([1]; Hepatitis C virus): < 1000 nM
- IC50 [2]: ≤ 500 nM

SMILES: CNC(=O)c1c(-c2ccc(F)cc2)oc2cc(N(C)S(C)(=O)=O)c(OCC(=O)Nc3nc(C)c(C)s3)cc12 [Example 417, 5-[(4,5-Dimethyl-thiazol-2-ylcarbamoyl)-methoxy]-2-(4-fluoro-phenyl)-6-(methanesulfonyl-methyl-amino)-benzofuran-3-carboxylic acid methylamide]
- EC50 ([1]; Hepatitis C virus): < 1000 nM
- IC50 [2]: ≤ 500 nM

SMILES: CNC(=O)c1c(-c2ccc(F)cc2)oc2cc(NS(C)(=O)=O)c(C3CC3)cc12 [Example 418, 5-Cyclopropyl-2-(4-fluoro-phenyl)-6-methanesulfonylamino-benzofuran-3-carboxylic acid methylamide]
- EC50 ([1]; Hepatitis C virus): < 1000 nM
- IC50 [2]: ≤ 500 nM

SMILES: CNC(=O)c1c(-c2ccc(F)cc2)oc2cc(-c3c(C)noc3C)c(OCCN3CCC(C#N)CC3)cc12 [Example 419, 5-[2-(4-Cyano-piperidin-1-yl)-ethoxy]-6-(3,5-dimethyl-isoxazol-4-yl)-2-(4-fluoro-phenyl)-benzofuran-3-carboxylic acid methylamide]
- EC50 ([1]; Hepatitis C virus): < 1000 nM
- IC50 [2]: ≤ 500 nM

SMILES: CNC(=O)c1c(-c2ccc(F)cc2)oc2cc(NS(C)(=O)=O)c(-c3cccs3)cc12 [Example 420, 2-(4-Fluoro-phenyl)-6-methanesulfonylamino-5-thiophen-2-yl-benzofuran-3-carboxylic acid methylamide]
- EC50 ([1]; Hepatitis C virus): < 1000 nM
- IC50 [2]: ≤ 500 nM

SMILES: CNC(=O)COc1cc2c(C(=O)NC)c(-c3ccc(F)cc3)oc2cc1N(C)S(C)(=O)=O [Example 421, 2-(4-Fluoro-phenyl)-6-(methanesulfonyl-methyl-amino)-5-methylcarbamoyl-methoxy-benzofuran-3-carboxylic acid methylamide]
- EC50 [1]: < 1000 nM
- IC50 [2]: ≤ 500 nM

SMILES: CNC(=O)c1c(-c2ccc(F)cc2)oc2cc(N(CC3(CO)CC3)S(C)(=O)=O)c(OCC3(CO)CC3)cc12 [Example 422, 2-(4-Fluoro-phenyl)-5-(1-hydroxymethyl-cyclopropylmethoxy)-6-[(1-hydroxymethyl-cyclopropylmethyl)-methanesulfonyl-amino]-benzofuran-3-carboxylic acid methylamide]
- EC50 ([1]; Hepatitis C virus): < 10000 nM
- IC50 [2]: 500 to 5000 nM

SMILES: CCOc1cc2c(C(=O)NC)c(-c3ccc(F)cc3)oc2cc1N(CC)CC [Example 423, 6-Diethylamino-5-ethoxy-2-(4-fluoro-phenyl)-benzofuran-3-carboxylic acid methylamide]
- EC50 ([1]; Hepatitis C virus): < 1000 nM
- IC50 [2]: ≤ 500 nM

— US7265152B2 (ViroPharma Incorporated, priority 2002, dated 2007)
